These results are taken from patent US20240132525A1, “BORON […], CO[…], METHODS AND USES THEREOF” (priority 2022, published 2024).

Where two headings read alike, the source gives them in different places. Where only a bound is given, the exact number is not on record here.

Data set [1] has as its target JAK1 (Homo sapiens (Human), UniProt P23458). Briefly: Biochemical kinase assay (33P-ATP filter-binding), JAK1. From the text:
(§1) Biochemical Kinase Assay Protocol (JAK)
(§2) Reaction Procedure: • 1. […] Detected kinase activity by filter-binding method.

In data set [2] the target is JAK2 (Homo sapiens (Human), UniProt O60674). The data set can be described thus: Biochemical kinase assay (33P-ATP filter-binding), JAK2.
Sequence of JAK2 (O60674 whole entry, species assumed): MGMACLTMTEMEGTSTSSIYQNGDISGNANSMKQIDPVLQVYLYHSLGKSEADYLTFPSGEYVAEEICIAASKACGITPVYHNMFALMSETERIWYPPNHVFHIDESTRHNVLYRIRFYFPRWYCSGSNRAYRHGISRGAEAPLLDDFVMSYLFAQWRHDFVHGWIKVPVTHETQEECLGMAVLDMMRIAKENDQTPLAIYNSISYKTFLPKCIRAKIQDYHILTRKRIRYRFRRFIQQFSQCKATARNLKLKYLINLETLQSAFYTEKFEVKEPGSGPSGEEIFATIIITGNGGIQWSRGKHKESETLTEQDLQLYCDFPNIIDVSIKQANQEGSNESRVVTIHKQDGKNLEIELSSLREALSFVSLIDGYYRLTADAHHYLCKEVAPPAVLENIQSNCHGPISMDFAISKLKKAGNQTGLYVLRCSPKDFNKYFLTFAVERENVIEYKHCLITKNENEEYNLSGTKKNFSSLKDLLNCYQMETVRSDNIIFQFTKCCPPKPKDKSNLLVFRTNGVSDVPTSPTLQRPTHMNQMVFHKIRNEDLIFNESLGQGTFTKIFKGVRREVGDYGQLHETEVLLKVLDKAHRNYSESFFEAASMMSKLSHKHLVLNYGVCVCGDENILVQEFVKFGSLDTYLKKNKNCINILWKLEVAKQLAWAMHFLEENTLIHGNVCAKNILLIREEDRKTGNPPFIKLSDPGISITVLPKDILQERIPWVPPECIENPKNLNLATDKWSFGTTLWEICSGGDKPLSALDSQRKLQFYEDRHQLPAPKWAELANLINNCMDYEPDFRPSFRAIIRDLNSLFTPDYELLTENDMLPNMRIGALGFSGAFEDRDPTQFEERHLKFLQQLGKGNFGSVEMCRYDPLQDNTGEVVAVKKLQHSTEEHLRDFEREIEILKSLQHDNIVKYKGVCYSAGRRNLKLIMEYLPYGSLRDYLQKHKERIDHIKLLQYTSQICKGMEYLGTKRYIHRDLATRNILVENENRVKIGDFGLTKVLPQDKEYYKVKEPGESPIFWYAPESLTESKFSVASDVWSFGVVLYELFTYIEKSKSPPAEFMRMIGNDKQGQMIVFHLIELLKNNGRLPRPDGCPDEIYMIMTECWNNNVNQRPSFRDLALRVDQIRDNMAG
Text: as §1, §2

The test system of data set [3] is IL-4/pSTAT6. Briefly: Cytokine function assay IL-4/pSTAT6 in PBMC. The data set is classed as cell-based. As to conditions: PBMC, read-out: IC50 IL-4, Table 3a. The protocol: (§3) Cytokine Function Assay Protocols for IL-4/pSTAT6 and GM-CSF/pSTAT5
IL-4/pSTAT6: • PBMC from a healthy donor was plated onto a 96 w plate. Compound was added and incubated for 1 hour (at 37° C.). After 1 hour, cells were stimulated with IL-4 for 15 minutes. Cells were fixed and stained with anti-pSTAT6 antibody. After staining, cells were read on a Beckman-Coulter CytoFLEX.

Data set [4] concerns GM-CSF/pSTAT5. Briefly: Cytokine function assay GM-CSF/pSTAT5 in lysed whole blood cells. Format: cell-based. To be noted: Whole blood cell, read-out: IC50 GM-CSF. On the procedure: as §3
GM-CSF/pSTAT5: • Whole blood from a healthy donor was lysed to remove red blood cells. Cells were plated onto a 96 well plate. Compound was added and incubated for 1 hour (at 37° C.). After 1 hour, cells were stimulated with GM-CSF for 15 minutes. Cells were fixed and stained with anti-pSTAT5 antibody. After staining, cells were read on a Beckman-Coulter CytoFLEX.

Data set [5] deals with IL-31. Briefly: Cytokine function assay for IL-31 in DH82 cells. The data set is classed as cell-based, canine. As to conditions: Canis lupus familiaris, DH82; Table 3a; read-out: IC50 IL-31. On the procedure:
Cytokine Function Assay Protocol for IL-31
The protocol for the cytokine function assay for IL-31 is set forth below: • 1. […] After 24 hr, wash with 37° C. pre-warmed PBS (100 uL/well). • 3. Add serum-free MEM, 90 uL per well, 2 hr, 37° C. • 4. Add 10 uL 10×IL-31 (40, 10, 2.5 ug/mL) in duplicate, 5 min, 37° C. • 5. Remove medium, add 60 uL lysis buffer per well. Agitate on a plate shaker (˜350 rpm) for 10 min at RT. • 6. […] Add 6 uL Acceptor Mix, cover with aluminum foil, quickly spin at 1000 rpm, shake at 120 rpm for 2 min, then incubate at RT for 1 hr. • 8. Add 6 uL Donor Mix, cover with aluminum foil, quickly spin at 1000 rpm, shake at 120 rpm for 2 min, then incubate at RT for 1 hr. • 9. Measure the fluorescence using EnVision™ plate reader.

The nature of data set [6]: Dog LM (liver microsome) assay. The data set is classed as in vitro ADME. To be noted: Table 3a; predicted clearance as percent of liver blood flow, 1 μM, 1 mg/ml microsomal protein. The method in brief:
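Pooled Beagle liver microsomes (1 mg/ml protein), compound 1 μM, Tris pH 7.6 with 5 mM MgCl2, 37 °C, started with 1 mM NADPH; parent loss by LC-MS/MS over several time points.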

Data set [7] in a line: Pharmacokinetic profile after single oral administration in Beagle dogs. The data set is classed as in vivo. To be noted: male Beagle dogs, single oral dose about 1.0 mg/kg, fasted; for concentration at 48 h: read-out: Mean Clast. The protocol:
Summary of Pharmacokinetic (PK) profile
Three healthy male Beagle dogs were studied to determine a representative pharmacokinetic (PK) profile following a single oral administration of 1.0 mg/kg to each dog in a fasted state. Blood samples were collected at pre-dose, 0.25, 0.5, 1, 2, 4, 8, 24; 32, and 48 h post dose following oral administration (1 mg/mL in 10% Propylene glycol (PG), 45% PEG400, 7% Cremophor EL, 38% 50 mM citrate buffer pH 3.0 suspension or clear solution).

Data set [8] has as its system recombinant canine IL-31 induced pruritic behaviors. Briefly: IL-31 induced itch behavior in Beagle dogs. Format: in vivo. As to conditions: oral 1 mg/kg once daily for 5 days, IL-31 1.75 μg/kg i.v. on day 5. The protocol:
Ten healthy adult male Beagle dogs with no previous history of pruritus or skin disease were selected. […] Afterward, all dogs received repeated administration of oral solution and again intravenously recombinant canine IL-31 injections to assess inhibition of IL-31 induced itch behavior. (See, e.g., Gonzales, Vet. Dermatol. 2016, 27, 34-e10 and Pearson, Vet. Sci. 2023, 10, 369)
An oral solution of a representative compound of the present disclosure, Example 33a, at 1 mg/kg once daily in the morning for five (5) days, was administered to each dog in a crossover design for the five (5) consecutive days. All dogs were fasted during the oral administration and thirty minutes (30 min) post oral drug administration. On day 5, all dogs were administered a recombinant canine IL-31 intravenously at the dose of 1.75 μg/kg.

Data set [9] concerns the target PDE4B (Homo sapiens (Human), UniProt Q07343). Briefly: PDE4B inhibition. The data set is classed as biochemical. To be noted: Table 3a.

Sequence of JAK1 (P23458 whole entry, species assumed): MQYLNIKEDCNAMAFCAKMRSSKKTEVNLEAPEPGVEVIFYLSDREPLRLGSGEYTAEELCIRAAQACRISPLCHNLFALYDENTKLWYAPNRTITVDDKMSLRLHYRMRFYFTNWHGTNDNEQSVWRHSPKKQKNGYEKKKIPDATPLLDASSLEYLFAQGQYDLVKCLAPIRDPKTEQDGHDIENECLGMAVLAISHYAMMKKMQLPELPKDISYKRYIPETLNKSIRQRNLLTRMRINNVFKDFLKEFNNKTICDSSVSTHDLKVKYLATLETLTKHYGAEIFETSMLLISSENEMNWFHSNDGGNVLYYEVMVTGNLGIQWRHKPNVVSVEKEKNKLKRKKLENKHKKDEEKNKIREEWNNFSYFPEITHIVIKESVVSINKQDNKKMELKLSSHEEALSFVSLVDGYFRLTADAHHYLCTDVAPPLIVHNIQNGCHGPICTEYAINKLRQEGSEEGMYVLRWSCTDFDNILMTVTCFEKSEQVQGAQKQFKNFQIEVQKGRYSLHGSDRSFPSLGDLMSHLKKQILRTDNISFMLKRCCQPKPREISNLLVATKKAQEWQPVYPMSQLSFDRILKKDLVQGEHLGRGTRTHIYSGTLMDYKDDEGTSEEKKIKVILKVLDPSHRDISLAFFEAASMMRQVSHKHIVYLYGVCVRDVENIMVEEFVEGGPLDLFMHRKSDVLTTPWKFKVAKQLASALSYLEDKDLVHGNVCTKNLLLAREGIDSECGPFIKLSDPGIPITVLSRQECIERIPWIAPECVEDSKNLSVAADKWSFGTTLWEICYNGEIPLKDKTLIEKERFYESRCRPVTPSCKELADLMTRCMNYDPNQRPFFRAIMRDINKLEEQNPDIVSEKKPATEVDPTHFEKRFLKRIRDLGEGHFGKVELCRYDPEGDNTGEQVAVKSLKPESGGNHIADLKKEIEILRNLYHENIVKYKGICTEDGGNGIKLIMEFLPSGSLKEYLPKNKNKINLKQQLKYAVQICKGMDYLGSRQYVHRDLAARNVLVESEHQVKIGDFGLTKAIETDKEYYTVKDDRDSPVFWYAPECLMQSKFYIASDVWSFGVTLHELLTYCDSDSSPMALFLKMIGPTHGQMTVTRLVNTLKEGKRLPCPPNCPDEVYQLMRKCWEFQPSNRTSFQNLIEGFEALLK
Sequence of PDE4B (Q07343 whole entry, species assumed): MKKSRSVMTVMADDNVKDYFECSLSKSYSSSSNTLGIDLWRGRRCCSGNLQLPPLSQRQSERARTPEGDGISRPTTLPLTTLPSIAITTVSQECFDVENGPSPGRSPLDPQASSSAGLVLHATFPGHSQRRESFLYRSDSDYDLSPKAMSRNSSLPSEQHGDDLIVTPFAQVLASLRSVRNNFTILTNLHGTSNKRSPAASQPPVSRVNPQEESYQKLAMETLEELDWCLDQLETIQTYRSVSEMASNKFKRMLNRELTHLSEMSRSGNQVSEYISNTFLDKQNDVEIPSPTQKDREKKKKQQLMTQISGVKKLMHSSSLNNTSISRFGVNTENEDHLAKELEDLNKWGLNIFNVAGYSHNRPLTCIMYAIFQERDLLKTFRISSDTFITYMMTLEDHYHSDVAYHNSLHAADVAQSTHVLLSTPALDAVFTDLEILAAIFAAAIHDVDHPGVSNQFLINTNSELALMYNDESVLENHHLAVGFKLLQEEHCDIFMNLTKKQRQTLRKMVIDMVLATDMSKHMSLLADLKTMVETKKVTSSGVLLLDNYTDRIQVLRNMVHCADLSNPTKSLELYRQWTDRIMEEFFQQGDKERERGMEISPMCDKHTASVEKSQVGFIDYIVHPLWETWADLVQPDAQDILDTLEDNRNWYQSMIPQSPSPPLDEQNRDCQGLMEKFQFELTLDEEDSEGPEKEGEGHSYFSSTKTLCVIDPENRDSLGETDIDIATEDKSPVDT

In the case of `Cc1cnc(Nc2cc3c(c(C(F)(F)F)c2)B(O)OC3)nc1N[C@@H]1COCC[C@H]1C#N` (single isomer, unassigned) [Example 033a, (trans)-3-[[2-[[1-hydroxy-7-(trifluoromethyl)-3H-2,1-benzoxaborol-5-yl]amino]-5-methyl-pyrimidin-4-yl]amino]tetrahydropyran-4-carbonitrile], the IC50 came to 0.4 nM in [1] (Table 3a, read-out: IC50 JAK1); 8.1 nM in data set [2] (Table 3a, read-out: IC50 JAK2); 136 nM in data set [3]; 1700 nM in [4]; 19.1 nM in [5]. For the same molecule, the “Dog LM QH” value in data set [6] is given as <19.9%. Moreover, the Cmax in [7] (dog, in vivo) stood at 279 ng/mL. In data set [7] (dog, in vivo, read-out: Mean AUCINF_obs), the AUC(0-inf) came to 2560 ng·h/mL. The AUC(0-t) in [7] (dog, in vivo, read-out: Mean AUClast) came to 2460 ng·h/mL. Further, in data set [7] (dog, in vivo), the concentration at 48 h stood at 4.74 ng/mL. In data set [7] (dog, in vivo, read-out: Mean T1/2 (converted)), the half-life is 14.6 h. Further, the Tmax in data set [7] (dog, in vivo, read-out: Median Tmax) came to 1 h. Also, the “Median Tlast” value in data set [7] turned out to be 48 h. In data set [8], the “anti-pruritic effect compared to IL-31 baseline/alone” value was “significant anti-pruritic effect”.

As to `Cc1cnc(Nc2cc(Cl)c3c(c2)COB3O)nc1N[C@@H]1COCC[C@H]1C#N` (single isomer, unassigned) [Example 031b, (trans)-3-((2-((7-chloro-1-hydroxy-1,3-dihydrobenzo[c][1,2]oxaborol-5-yl)amino)-5-methylpyrimidin-4-yl)amino)tetrahydro-2H-pyran-4-carbonitrile], the “Dog LM QH” value in data set [6] was <19.9%. The concentration at 48 h in data set [7] (dog, in vivo) is 7.98 ng/mL. Also, the “Median Tlast” value in data set [7] came out at 48 h.

As to `Cc1cnc(Nc2ccc3c(c2)COB3O)nc1N[C@@H]1COCC[C@H]1C#N` (single isomer, unassigned) [Example 026a, (trans)-3-((2-((1-hydroxy-1,3-dihydrobenzo[c][1,2]oxaborol-5-yl)amino)-5-methylpyrimidin-4-yl)amino)tetrahydro-2H-pyran-4-carbonitrile], the half-inhibitory concentration (IC50) in [1] (IC50 JAK1, Table 3a) amounted to 0.4 nM; in data set [2] (IC50 JAK2, Table 3a) it was 1.6 nM; in data set [9] it was 972 nM; in data set [3], 49.7 nM; in data set [4] it was 4240 nM; in [5], 21.6 nM. Moreover, the “Dog LM QH” value in data set [6] is reported as <19.9%.
